Test results reported in patent publication US20030186464A1, “Surface plasmon resonance methods” (priority 2002, published 2003).

Experiments:
immobilized IL-2 = target: T1, immobilized IL-2 (Homo sapiens, UniProt P60568); test: Double ligand SPR on immobilized interleukin-2 (Examples 9-11); format: binding; details: for Kd: Example 11, immobilized interleukin-2, read-out: apparent Kd in SPR experiments
T1 construct: made in house; host or cells: E. coli
Procedure: A CM5 sensor chip (Biacore-BR-1000-14) is docked in a Biacore 2000 SPR device and normalized using a standard Biacore protocol with 70% glycerol. The chip is next equilibrated in PBS for approximately 1 hr at a 20 μL/min flow rate. The dextran surface of the chip is activated through an NHS/EDC coupling. This coupling is done using an amine coupling kit (Biacore—BR-100-50) containing N-hydroxysuccinimide (NHS 11.5 mg/mL) and N-ethyl-N′-(3-dimethylaminopropyl) carbodiimide hydrochloride (EDC 75 mg/mL). First, the two reagents are mixed in a 1:1 ratio and then 35 μL of the mixture are injected at 5 μL/min. The chip is activated one flow cell at a time, and that flow cell is subsequently labeled with protein.
IL-2 is expressed in E. coli cells and purified using standard procedures. Protein is then concentrated to 100 μM and the buffer is exchanged to 100 mM MES pH 5.75 (Nap-5 column, Pierce). A sensorgram is then run over the activated flow cell at 2,L/min of PBS. The IL-2 solution is then injected at 2 μL/min for 10 min. After injection the change in RUs is measured by marking the RUs at t=0 and t=final and subtracting. This gives the total RU change, which is related to the total mass of protein successfully coupled to the CM5 surface. The total mass will later be used to determine stoichiometry of binding. This procedure is then repeated with another arbitrary protein to create a measure for nonspecific binding. The arbitrary protein is immobilized on an adjacent cell. […] The sensorgram is then altered to flow across all four cells on the CM5 chip at 5 μL/min PBS. A solution of 1 M ethanolamine hydrochloride-NaOH pH 8.5 (Amine coupling kit, Biacore-BR-100-50) is injected at 5 μL/min for 7 min. Proteins are immobilized at densities of 100-160 fmol/mm^2. The chip is equilibrated overnight in PBS+0.05% azide+2% DMSO at 20 μL/min.
In this experiment, variable concentrations of a compound are tested at a constant concentration of another compound. The compound held constant is 2c, for example (structure shown in Example 2). To determine appropriate constant concentrations for 2c, a compound titration is first performed. Dilution series of the compounds are typically performed to produce seven solutions having final compound concentrations of 30 mM, 10 mM, 3.3 mM, 1.1 mM, 0.37 mM, 0.12 mM, and 0.041 mM; an eighth solution is a DMSO-only baseline. The compounds are then diluted into PBS+0.05% azide to final concentrations of 300 μM, 100 μM, 33 μM, 11 μM, 3.7 μM, 1.2 μM, 0.41 μM. The compound solutions are injected from lowest concentration to highest at 40 μL/min for 1 min. The SPR software method includes a 1 min wash before injection, the injection and then a 3 min wash after the injection.
These dilution series are analyzed by BIAevaluation software version 3.0. Sensorgrams are plotted for compound binding to the IL-2 labeled cell of the chip. The sensorgrams are modified by subtracting the sensorgrams for the appropriate compound dilutions over cell 1 (a blank cell). This subtraction step removes any RU changes that might occur due to non-specific interactions between the compound and the chip itself or refractive changes in the buffer. Finally, the eight sensorgrams produced from the compound dilution series are zeroed at the average of their starting RUs. Then the sensorgram produced by injecting DMSO only is subtracted to reveal the final sensorgrams used to determine relative binding.
To determine KdSPR for the compound, the compound concentration is plotted on the X-axis, while the fraction bound at the plateau of the injection is plotted on the Y-axis. The curve is then analyzed via non-linear regression analysis (Kaleidagraph, Synergy Software). […] The concentration chosen is where the RUs remain constant at the top of the binding curve and thus the IL-2:2c ratio is 1. For 2c, this concentration is 100 μM.
A second compound is then run, this time in both the presence and absence of 2c. […]

Y31C-IL-2-SS -4 = target: T2, Y31C-IL-2-SS -4 (Homo sapiens, UniProt P60568, Y51C); test: SPR binding of compound to immobilized IL-2-SS-ligand complex (Examples 1-2); details: immobilized substrate-SS-ligand complex Y31C-IL-2-SS -4
T2 construct: made in house; host or cells: E. coli
Procedure: (§1) A CM5 sensor chip (Biacore-BR-1000-14) is docked in a Biacore 2000 SPR device, and the chip is then normalized using a standard Biacore protocol with 70% glycerol. The chip is next equilibrated in PBS for approximately 1 hr at a 20 μL/min flow rate. The dextran surface of the chip is activated through an NHS/EDC coupling. This activation is done using an amine coupling kit (Biacore—BR-100-50) containing N-hydroxysuccinimide (NHS 11.5 mg/mL) and N-ethyl-N′-(3-dimethylaminopropyl) carbodiimide hydrochloride (EDC 75 mg/mL). The two reagents are first mixed in a 1:1 ratio and then 35 μL of the mixture are injected at […]. The chip is activated one flow cell at a time, and that flow cell is subsequently labeled with protein.
(§2) IL-2 cysteine mutants are expressed in E. coli cells and purified using standard procedures. The cysteine mutants are treated with 10 mM βME overnight to reduce the surface cysteine. The βME is removed and the protein-thiolate is placed in 100 mM HEPES buffer pH 7.4 (Nap-5 column, Pierce). […]
(§3) The protein-SS—ligand complex is next concentrated to 100 μM using a Millipore-UFV5BCCOO 5K NMWL membrane, 0.5 mL centrifugal filter and tube. […] After injection the change in RUs is measured by marking the RUs at t=0 and t=final and subtracting. […]
(§4) The dilution series are analyzed by BIAevaluation software version 3.0. […]

Y31C-IL-2-SS -3 = target: T3, Y31C-IL-2-SS -3 (Homo sapiens, UniProt P60568, Y51C); test: as above; details: immobilized substrate-SS-ligand complex Y31C-IL-2-SS -3
T3 construct: made in house; host or cells: E. coli
Procedure: as §1, §2, §3, §4

wild type human IL-2 = wild type human IL-2 (Homo sapiens, UniProt P60568); test: SPR binding of compounds to immobilized wild type IL-2 (Examples 1-2); details: for IL-2 wt Kd: immobilized wild type human IL-2
K43C-IL-2-SS -2 = target: T4, K43C-IL-2-SS -2 (Homo sapiens, UniProt P60568, K63C); test: SPR binding of compounds to immobilized IL-2-SS-ligand complex (Examples 1-2); details: immobilized substrate-SS-ligand complex K43C-IL-2-SS -2
T4 construct: made in house; host or cells: E. coli
Procedure: as §1, §2, §3, §4

T1 sequence (P60568 21-153): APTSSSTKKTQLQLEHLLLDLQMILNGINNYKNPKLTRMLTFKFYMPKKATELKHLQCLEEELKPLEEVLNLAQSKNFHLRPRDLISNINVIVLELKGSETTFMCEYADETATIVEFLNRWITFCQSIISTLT
Chain of wild type human IL-2 (P60568 21-153): as above
T4 sequence (P60568 21-153 K63C): as the sequence (P60568 21-153) above, with K43C counted along it
T3 sequence (P60568 21-153 Y51C): as the sequence (P60568 21-153) above, with Y31C counted along it
T2 sequence (P60568 21-153 Y51C): as the sequence (P60568 21-153) above, with Y31C counted along it

Row | Kd (immobilized IL-2) [µM] | Kd (Y31C-IL-2-SS -4) [µM] | Kd (Y31C-IL-2-SS -3) [µM] | Kd (wild type human IL-2; immobilized wild type human IL-2, read-out: IL-2 wt Kd) [µM] | Kd (K43C-IL-2-SS -2) [µM] | IL-2 wt Kd (wild type human IL-2) | Kd,SPR IL-2 (immobilized IL-2; immobilized IL-2, no other compound) | Compound
1 | 10 | 30 | 8 | 33 | – | – | – | COC(=O)[C@H](Cc1ccc(C=Cc2ccccc2)cc1)NC(=O)C[C@H]1CCCN(C(=N)N)C1 [Compound 2c]
2 | > 500 | – | – | – | 250 | Inactive | – | COCC(=O)N1CCc2c([nH]c3ccccc23)C1 [Compound 3c]
3 | – | – | – | – | 210 | Inactive | Inactive | COCN(C)C(=O)c1ccc(C(C)C)cc1 [Compound 4c]
